Reference: ChEMBL document CHEMBL3046779, “Synthesis and anti-juvenile hormone activity of ethyl 4-[(6-substituted 2,2-dimethyl-2H-chromen-7-yl)methoxy]benzoates” (2010)

Legend:
Format in all cases: functional
Bombyx mori [1] = assay: Antijuvenile hormone activity against third-instar larvae of Bombyx mori assessed as precocious metamorphosis-inducing activity at 10 ug/larva
Bombyx mori [2] = assay: Antijuvenile hormone activity against third-instar larvae of Bombyx mori assessed as precocious metamorphosis-inducing activity at 40 ug/larva
Bombyx mori [3] = assay: Antijuvenile hormone activity against third-instar larvae of Bombyx mori assessed as precocious metamorphosis-inducing activity at 1 ug/larva
Bombyx mori [4] = assay: Antijuvenile hormone activity against allatectomized third-instar larvae of Bombyx mori assessed as number of larvae transformed into fifth instar larvae at 1 ug/larva (reference value: 0)
Bombyx mori [5] = assay: Antijuvenile hormone activity against allatectomized third-instar larvae of Bombyx mori assessed as number of larvae transformed into larval pupa intermediate at 40 ug/larva (reference value: 0)
Bombyx mori [6] = assay: Antijuvenile hormone activity against allatectomized third-instar larvae of Bombyx mori assessed as number of larvae transformed into precocious pupa at 40 ug/larva (reference value: 10)
Bombyx mori [7] = assay: Antijuvenile hormone activity against allatectomized third-instar larvae of Bombyx mori assessed as number of larvae transformed into fifth-instar larvae at 40 ug/larva (reference value: 0)
Bombyx mori [8] = assay: Antijuvenile hormone activity against allatectomized third-instar larvae of Bombyx mori assessed as number of larvae transformed into larval pupa intermediate at 1 ug/larva (reference value: 0)
Bombyx mori [9] = assay: Antijuvenile hormone activity against allatectomized third-instar larvae of Bombyx mori assessed as number of larvae transformed into precocious pupa at 1 ug/larva (reference value: 10)

Row | Structure (SMILES) | Activity (Bombyx mori [1]) [%] | Activity (Bombyx mori [2]) [%] | Activity (Bombyx mori [3]) [%] | Activity (Bombyx mori [4]) | Activity (Bombyx mori [5]) | Activity (Bombyx mori [6]) | Activity (Bombyx mori [7]) | Activity (Bombyx mori [8]) | Activity (Bombyx mori [9])
1 | CCOC(=O)c1ccc(OCc2ccc3c(c2)OC(C)(C)C=C3)cc1 | 20 | 65 | 0 | – | – | – | – | – | –
2 | CCOC(=O)c1ccc(OCc2cc3c(cc2OC)C=CC(C)(C)O3)cc1 | 95 | 100 | 75 | 2 | 0 | 0 | 10 | 6 | 2
3 | CCOC(=O)c1ccc(OCc2cc3c(cc2OCC)C=CC(C)(C)O3)cc1 | 5 | 20 | 0 | – | – | – | – | – | –
4 | CCCOc1cc2c(cc1COc1ccc(C(=O)OCC)cc1)OC(C)(C)C=C2 | 0 | 16 | 0 | – | – | – | – | – | –
5 | CCOC(=O)c1ccc(OCc2cc3c(cc2OCc2ccccc2)C=CC(C)(C)O3)cc1 | 100 | 100 | 40 | – | – | – | – | – | –
6 | CCOC(=O)c1ccc(OCc2cc3c(cc2OC)CCC(C)(C)O3)cc1 | 94 | 87 | 46 | – | 0 | 0 | 10 | – | –
7 | CCOC(=O)c1ccc(OCc2cc3c(cc2OC)OCCO3)cc1 | 58 | 79 | 10 | – | – | – | – | – | –
8 | CCOC(=O)c1ccc(OCc2cc3c(cc2OC)CCCC3)cc1 | 10 | 30 | 0 | – | – | – | – | – | –
9 | CCOC(=O)c1ccc(OCc2cc(OC)c(OC)cc2OC)cc1 | 0 | 0 | 0 | – | – | – | – | – | –
10 | COC(C)(C)CCC[C@H](C)C/C=C/C(C)=C/C(=O)OC(C)C [METHOPRENE] | – | – | – | 10 | – | – | – | 0 | 0
